We go through six compounds from patent US20010053351A1, “Inhibition of GSK-3 beta” (priority 1999, published 2001).

One test relates to GSK-3β−/− cells. Briefly: Cell death / viability (trypan blue) of GSK-3β-/- embryonic fibroblast cell lines. In kind it is cell-based, mouse. To be noted: anisomycin 0-5 μg/ml, sorbitol 0-1000 mM, daunorubicin 0-1000 ng/ml. The source says:
To probe the mechanism by which GSK-3β impacted TNF cytotoxicity, immortalized mouse embryonic fibroblast (MEF) cell lines from two wild-type ([…]), two GSK-3β heterozygous (+/−1 and +/−2) and two GSK-3β homozygous mutant (−/−1 and −/−2) embryos were derived from embryos.
We next examined the sensitivity of the lines to TNF-induced cell death. […] As a reference, TNF receptor-associated factor 2 (TRAF2) homozygous mutant MEFs were used in the same assay.
Viability is expressed normalized to untreated controls. Independently derived GSK-3β^+/+ EF cell clones are indicated by +/+1 and +/+2; GSK-3β^+/− by +/−1 and +/−2; and GSK-3β^−/− by −/−1, and −/−2. […] Cells were uniformly treated with cycloheximide (CHX, 0.25 μg/ml). […] (C) Sensitivity of GSK-3β^−/− EF cells to various apoptotic stimuli. EF cells were stimulated with anisomycin (0-5 μg/ml), sorbitol (0-1000 mM), daunorubicin (0-1000 ng/ml), and γ-irradiation (0-50 Gy). All experiments were repeated at least three times, and the data (as a percentage) is shown as the mean ± standard error.

Another test concerns GSK-3. To be noted: cited from earlier work.
The target of a further test is GSK-3α (Homo sapiens, UniProt P49840). The following applies: significant effects at concentrations of VPA similar to those attained clinically; cited from earlier work.
Sequence of GSK-3α (P49840 whole entry, species assumed): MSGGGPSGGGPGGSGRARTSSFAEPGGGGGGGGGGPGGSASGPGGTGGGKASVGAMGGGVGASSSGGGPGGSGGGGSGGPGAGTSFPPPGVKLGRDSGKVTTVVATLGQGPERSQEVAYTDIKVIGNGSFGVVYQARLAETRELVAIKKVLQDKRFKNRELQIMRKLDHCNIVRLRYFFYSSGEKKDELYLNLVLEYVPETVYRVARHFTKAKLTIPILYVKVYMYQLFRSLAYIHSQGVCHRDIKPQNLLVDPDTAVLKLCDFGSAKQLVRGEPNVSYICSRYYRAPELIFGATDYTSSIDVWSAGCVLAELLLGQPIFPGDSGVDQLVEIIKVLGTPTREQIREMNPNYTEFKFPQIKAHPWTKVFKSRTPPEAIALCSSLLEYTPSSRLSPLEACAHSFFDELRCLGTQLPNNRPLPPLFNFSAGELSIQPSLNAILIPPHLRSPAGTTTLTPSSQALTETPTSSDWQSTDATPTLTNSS
The target of the next test is GSK-3β (Homo sapiens, UniProt P49841). To be noted: significant effects at concentrations of VPA similar to those attained clinically; cited from earlier work.
Sequence of GSK-3β (P49841 whole entry): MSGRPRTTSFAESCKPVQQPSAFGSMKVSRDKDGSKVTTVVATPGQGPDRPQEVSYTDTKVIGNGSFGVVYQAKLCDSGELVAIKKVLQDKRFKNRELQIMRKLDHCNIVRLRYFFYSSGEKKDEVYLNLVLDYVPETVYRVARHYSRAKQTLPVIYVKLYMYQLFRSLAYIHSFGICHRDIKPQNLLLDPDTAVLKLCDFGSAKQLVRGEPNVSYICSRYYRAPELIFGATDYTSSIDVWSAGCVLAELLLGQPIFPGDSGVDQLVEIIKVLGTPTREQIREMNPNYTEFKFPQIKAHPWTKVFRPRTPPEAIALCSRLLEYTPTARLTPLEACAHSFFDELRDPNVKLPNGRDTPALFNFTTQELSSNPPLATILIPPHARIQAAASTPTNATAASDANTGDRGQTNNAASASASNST

Take `COc1ccc(C[C@H]2NC[C@H](O)[C@H]2OC(C)=O)cc1` [anisomycin]: the “susceptibility of GSK-3β-deficient cells to apoptotic stimuli” value (shortened to “susceptibility of GSK-3β-deficient cells”) in the test with GSK-3β−/− cells is recorded as “normal susceptibility”.

For insulin, the “decrease of GSK-3 activity” value in the test with GSK-3 is listed as “approximately 50%”.

Take `COc1cccc2c1C(=O)c1c(O)c3c(c(O)c1C2=O)C[C@@](O)(C(C)=O)C[C@@H]3O[C@H]1C[C@H](N)[C@H](O)[C@H](C)O1` [daunorubicin]: in the test with GSK-3β−/− cells, the “susceptibility of GSK-3β-deficient cells” value is on record as “normal susceptibility”.

For `CC(C)NCC(O)c1ccc(O)c(O)c1` (stereo not shown) [Isoproterenol], the “decrease of GSK-3 activity” value in the test on GSK-3 was “approximately 50%”.

In the case of `OC[C@@H](O)[C@@H](O)[C@H](O)[C@@H](O)CO` [sorbitol], the “susceptibility of GSK-3β-deficient cells” value with GSK-3β−/− cells is given as “normal susceptibility”.

In the case of `CCCC(CCC)C(=O)O` [VPA, Valproic acid], at GSK-3α, the “inhibition of GSK-3α” value was “inhibits”. The “inhibition of GSK-3β” value at GSK-3β is recorded as “inhibits”.
